{"source": "patent US9815796B2", "about": "(Merck Sharp & Dohme Corp., priority 2013, dated 2017)"}
{"molecular_target": "Rhesus PDE2A3 (Macaca mulatta, UniProt B3VTJ2)", "sequence (B3VTJ2 1-941)": "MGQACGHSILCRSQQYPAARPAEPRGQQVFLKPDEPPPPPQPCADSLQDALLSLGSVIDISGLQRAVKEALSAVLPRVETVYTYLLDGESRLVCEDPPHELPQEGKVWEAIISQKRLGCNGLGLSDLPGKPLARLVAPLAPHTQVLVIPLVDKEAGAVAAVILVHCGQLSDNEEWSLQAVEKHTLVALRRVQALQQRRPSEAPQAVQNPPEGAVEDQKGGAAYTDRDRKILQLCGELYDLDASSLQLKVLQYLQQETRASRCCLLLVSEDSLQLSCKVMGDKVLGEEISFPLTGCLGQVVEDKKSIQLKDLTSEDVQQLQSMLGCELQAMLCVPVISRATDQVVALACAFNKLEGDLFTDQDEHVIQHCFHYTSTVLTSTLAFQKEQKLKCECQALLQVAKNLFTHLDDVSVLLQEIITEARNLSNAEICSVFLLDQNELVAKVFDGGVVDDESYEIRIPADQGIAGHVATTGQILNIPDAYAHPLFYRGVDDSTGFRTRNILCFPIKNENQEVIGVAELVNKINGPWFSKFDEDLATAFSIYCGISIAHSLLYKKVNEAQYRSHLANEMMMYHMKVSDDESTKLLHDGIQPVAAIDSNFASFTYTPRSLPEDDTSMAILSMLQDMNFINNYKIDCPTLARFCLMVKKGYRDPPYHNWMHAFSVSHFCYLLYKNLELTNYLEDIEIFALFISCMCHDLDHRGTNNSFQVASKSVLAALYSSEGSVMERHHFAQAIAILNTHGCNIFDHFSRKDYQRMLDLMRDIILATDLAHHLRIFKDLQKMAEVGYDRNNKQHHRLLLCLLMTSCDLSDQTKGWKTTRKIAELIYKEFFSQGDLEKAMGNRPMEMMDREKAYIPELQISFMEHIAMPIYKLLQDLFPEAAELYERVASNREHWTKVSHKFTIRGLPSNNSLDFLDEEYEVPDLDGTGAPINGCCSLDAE", "assay": "PDE2 fluorescence polarization (IMAP FP) inhibition assay, rhesus enzyme", "format": "biochemical, rhesus macaque", "conditions": "Rhesus PDE2, Lab A; read-out: Rhesus PDE2 Ki (nM) - Lab A", "procedure": "(§1) The activity of the compounds in accordance with the present invention as PDE2 inhibitors may be readily determined using a fluorescence polarization (FP) methodology (Huang, W., et al., J. Biomol Screen, 2002, 7: 215).\n(§2) In a typical experiment the PDE2 inhibitory activity of the compounds of the present invention was determined in accordance with the following experimental method. Rhesus PDE2A3 was amplified from rhesus macaque brain cDNA (Biochain Institute, Hayward, Calif.) using primers based on human PDE2A sequence (accession NM_002599.3) where the forward primer containing a Kozak consensus was 5′-[…]-3′ and the reverse primer was 5′-[…]-3′. Amplification with Easy-A High-Fidelity PCR cloning enzyme (Stratagene, La Jolla, Calif.) was 95° C. for 2 minutes followed by thirty three cycles of 95° C. for 40 seconds, 52° C. for 30 seconds, and 72° C. for 2 minutes 48 seconds. Final extension was 72° C. for 7 minutes. The PCR product was TA cloned into pcDNA3.3-TOPO (Invitrogen, Carlsbad, Calif.) according to standard protocol. A consensus sequence was developed from multiple clones and then deposited into GenBank (EU812167). AD293 cells (Stratagene, La Jolla, Calif.) with 70-80% confluency were transiently transfected with rhesus PDE2A3/pcDNA3.3-TOPO using Lipofectamine 2000 according to manufacturer specifications (Invitrogen, Carlsbad, Calif.). Cells were harvested 48 hours post-transfection and lysed by sonication (setting 3, 10×5 sec pulses) in a buffer containing 20 mM HEPES pH 7.4, 1 mM EDTA and Complete Protease Inhibitor Cocktail Tablets (Roche, Indianapolis, Ind.). Lysate was collected by centrifugation at 75,000×g for 20 minutes at 4° C. and supernatant utilized for evaluation of PDE2 activity. The fluorescence polarization assay for cyclic nucleotide phosphodiesterases was performed using an IMAP® FP kit supplied by Molecular Devices, Sunnyvale, Calif. (product # R8139). […] Assays were performed at room temperature in 384-well microtiter plates with an incubation volume of 20.2 μL. Solutions of test compounds were prepared in DMSO and serially diluted with DMSO to yield 8 μL of each of 10 solutions differing by 3-fold in concentration, at 32 serial dilutions per plate. […] 0% of inhibition is determined by using DMSO (1% final concentrations).\n(§3) A Labcyte Echo 555 (Labcyte, Sunnyvale, Calif.) is used to dispense 200 nL from each well of the titration plate to the 384 well assay plate. Ten microliters of a solution of enzyme (1/2000 final dilution from aliquots; sufficient to produce 20% substrate conversion) was added to the assay plate. Next 10 uL of a separate solution of the substrate FAM-labeled cAMP (50 nM final concentration product # R7506 from Molecular Devices) and the activator cGMP (1 uM final concentration), prepared in the assay buffer (10 mM Tris HCl, pH 7.2, 10 mM MgCl2, 0.05% NaN3 0.01% Tween-20, and 1 mM DTT) was added to the assay plate and shaken to mix. The reaction is allowed to proceed at room temperature for 60 minutes. A binding solution is then made from the kit components, comprised of 80% Solution A, 20% Solution B and binding reagent at a volume of 1/600 the total binding solution. The enzymatic reaction is stopped by addition of 60 μL of the binding solution to each well of the assay plates and the plates are sealed and shaken for 30 seconds. The plate was incubated at room temperature for at least one hour prior to determining the fluorescence polarization (FP). The parallel and perpendicular fluorescence of each well of the plate was measured using a Tecan Genios Pro plate reader (Tecan, Switzerland) or Perkin Elmer EnVision™ plate reader (Waltham, Mass.). Fluorescence polarization (mP) was calculated from the parallel (S) and perpendicular (P) fluorescence of each sample well and the analogous values for the median control well, containing only substrate (So and Po), using the following equation: Polarization (mP)=1000*(S/So−P/Po)/(S/So+P/Po).", "units": {"Ki": "nM"}}
{"smiles": "CC(C)(NC(=O)c1cc(=O)[nH]c(-c2ncccn2)n1)c1ccc(OC(F)(F)F)cc1", "note": "[Example 289, N-{1-methyl-1-[4-(trifluoromethoxy)phenyl]ethyl}-6-oxo-1,6-dihydro-2,2′-bipyrimidine-4-carboxamide]", "Ki": 2320}
{"smiles": "COc1cc(C(C)NC(=O)c2cc(=O)[nH]c(-c3ncccn3)n2)ccc1C(F)(F)F", "note": "(stereo not drawn) [Example 104, N-{1-[3-methoxy-4-(trifluoromethyl)phenyl]ethyl}-6-oxo-1,6-dihydro-2,2′-bipyrimidine-4-carboxamide]", "Ki": 524}
{"smiles": "Cc1cc(C(F)(F)F)ccc1C(C)NC(=O)c1cc(=O)[nH]c(C2CC2)n1", "note": "(stereo not drawn) [Example 208]", "Ki": 291}
{"smiles": "C[C@@H](NC(=O)c1cc(=O)[nH]c(-c2ncccn2)n1)c1cccc(C(F)(F)F)c1", "note": "[Example 80, 6-oxo-N-{(1R)-1-[3-(trifluoromethyl)phenyl]ethyl}-1,6-dihydro-2,2′-bipyrimidine-4-carboxamide]", "Ki": 845}
{"smiles": "C[C@@H](NC(=O)c1cc(=O)[nH]c(-c2ncccn2)n1)c1ccc(CC(F)(F)F)cc1", "note": "[Example 107, 6-oxo-N-{(1R)-1-[4-(2,2,2-trifluoroethyl)phenyl]ethyl}-1,6-dihydro-2,2′-bipyrimidine-4-carboxamide]", "Ki": 21}
{"smiles": "CC(C)[C@@H](NC(=O)c1cc(=O)[nH]c(-c2ncccn2)n1)c1ccc(SC(F)(F)F)cc1", "note": "[Example 97, N-[(1R)-2-methyl-1-{4-[(trifluoromethyl)sulfanyl]phenyl}propyl]-6-oxo-1,6-dihydro-2,2′-bipyrimidine-4-carboxamide]", "Ki": 1.5}
{"smiles": "CC(NC(=O)c1cc(=O)[nH]c(-c2ccccc2)n1)c1ccc(C#N)cc1", "note": "(stereo not drawn) [Example 370, N-[1-(4-cyanophenyl)ethyl]-6-oxo-2-phenyl-1,6-dihydropyrimidine-4-carboxamide]", "Ki": 334}
{"smiles": "COc1cc(C(F)(F)F)ccc1[C@@H](C)NC(=O)c1cc(=O)[nH]c(-c2ccccc2)n1", "note": "[Example 188, N-{(1R)-1-[2-methoxy-4-(trifluoromethyl)phenyl]ethyl}-6-oxo-2-phenyl-1,6-dihydropyrimidine-4-carboxamide]", "Ki": 1010}
{"smiles": "C[C@@H](NC(=O)c1cc(=O)[nH]c(C(C)(C)n2cccn2)n1)c1ccc(C(F)(F)F)cc1", "note": "[Example 7, 2-[1-methyl-1-(1H-pyrazol-1-yl)ethyl]-6-oxo-N-{(1R)-1-[4-(trifluoromethyl)phenyl]ethyl}-1,6-dihydropyrimidine-4-carboxamide]", "Ki": 2780}
{"smiles": "CC(NC(=O)c1cc(=O)[nH]c(-c2ncccn2)n1)c1ncc(C(F)(F)F)cn1", "note": "(stereo not drawn) [Example 105, 6-oxo-N-{1-[5-(trifluoromethyl)pyrimidin-2-yl]ethyl}-1,6-dihydro-2,2′-bipyrimidine-4-carboxamide]", "Ki": 3470}
{"smiles": "O=C(c1cc(=O)[nH]c(-c2ccccc2)n1)N1CCCCC1c1ccc(C(F)(F)F)cc1", "note": "(stereo not drawn) [Example 346, 2-phenyl-6-({2-[4-(trifluoromethyl)phenyl]piperidin-1-yl}carbonyl)pyrimidin-4(3H)-one]", "Ki": 2350}
{"smiles": "O=C(NC1(c2ccc(C(F)(F)F)cc2)CCCC1)c1cc(=O)[nH]c(-c2ncccn2)n1", "note": "[Example 72, 6-oxo-N-{1-[4-(trifluoromethyl)phenyl]cyclopentyl}-1,6-dihydro-2,2′-bipyrimidine-4-carboxamide]", "Ki": 333}
{"smiles": "COC(=O)c1ccc(C(C)(C)NC(=O)c2cc(=O)[nH]c(-c3ccccc3)n2)cc1", "note": "[Example 160, methyl 4-(1-methyl-1-{[(6-oxo-2-phenyl-1,6-dihydropyrimidin-4-yl)carbonyl]amino}ethyl)benzoate]", "Ki": 826}
{"smiles": "CN(Cc1ccc(C(F)(F)F)cc1)C(=O)c1cc(=O)[nH]c(-c2ccccc2)n1", "note": "[Example 345, N-methyl-6-oxo-2-phenyl-N-[4-(trifluoromethyl)benzyl]-1,6-dihydropyrimidine-4-carboxamide]", "Ki": 8340}
{"molecular_target": "Rhesus PDE2A3 (Macaca mulatta, UniProt B3VTJ2)", "assay": "PDE2 fluorescence polarization (IMAP FP) inhibition assay, rhesus enzyme", "format": "biochemical, rhesus macaque", "conditions": "Rhesus PDE2, Lab B; read-out: Rhesus PDE2 Ki (nM) - Lab B", "procedure": "as §1, §2, §3", "units": {"Ki": "nM"}}
{"smiles": "Cc1nc(C(=O)NC(c2ccc(C3(C)CC3)c(F)c2)C(C)(C)C)cc(=O)[nH]1", "note": "(single isomer, unassigned) [Example 710, (S)- or (R)-N-(1-(3-fluoro-4-(1-methylcyclopropyl)phenyl)-2,2-dimethylpropyl)-2-methyl-6-oxo-1,6-dihydropyrimidine-4-carboxamide]", "Ki": "> 2970"}
{"smiles": "CC(NC(=O)c1cc(=O)[nH]c(-c2ccccc2)n1)c1ccc(O)cc1", "note": "(stereo not drawn) [Example 369, N-[1-(4-hydroxyphenyl)ethyl]-6-oxo-2-phenyl-1,6-dihydropyrimidine-4-carboxamide]", "Ki": 8780}
{"smiles": "COc1ccc(C(C)(C)c2nc(C(=O)N[C@@H](c3ccc(C(F)(F)F)c(F)c3)C3CC3)cc(=O)[nH]2)cc1", "note": "[Example 499, N-{(R)-cyclopropyl[3-fluoro-4-(trifluoromethyl)phenyl]methyl}-2-[1-(4-methoxyphenyl)-1-methylethyl]-6-oxo-1,6-dihydropyrimidine-4-carboxamide]", "Ki": 115}
{"smiles": "CC(NC(=O)c1cc(=O)[nH]c(-c2ccccc2)n1)c1ccc(S(C)(=O)=O)cc1", "note": "(stereo not drawn) [Example 382, N-{1-[4-(methylsulfonyl)phenyl]ethyl}-6-oxo-2-phenyl-1,6-dihydropyrimidine-4-carboxamide]", "Ki": 3120}
{"smiles": "CC(NC(=O)c1cc(=O)[nH]c(-c2ccccc2)n1)c1ccc(C#N)cc1", "note": "(stereo not drawn) [Example 370, N-[1-(4-cyanophenyl)ethyl]-6-oxo-2-phenyl-1,6-dihydropyrimidine-4-carboxamide]", "Ki": 533}
{"smiles": "CCOC(=O)c1ccc([C@@H](C)NC(=O)c2cc(=O)[nH]c(-c3ccccc3)n2)cc1", "note": "[Example 355, ethyl 4-[(1R)-1-{[(6-oxo-2-phenyl-1,6-dihydropyrimidin-4-yl)carbonyl]amino}ethyl]benzoate]", "Ki": "~29200"}
{"smiles": "COc1ccc(C(NC(=O)c2cc(=O)[nH]c(-c3ccccc3)n2)c2ccc(C(F)(F)F)cc2)cc1", "note": "(stereo not drawn) [Example 381, N-{(4-methoxyphenyl)[4-(trifluoromethyl)phenyl]methyl}-6-oxo-2-phenyl-1,6-dihydropyrimidine-4-carboxamide]", "Ki": "~20400"}
{"smiles": "C[C@@H](NC(=O)c1cc(=O)[nH]c(-c2ncccn2)n1)c1cc(F)c(C(F)(F)F)cc1F", "note": "[Example 429, N-{(1R)-1-[2,5-difluoro-4-(trifluoromethyl)phenyl]ethyl}-6-oxo-1,6-dihydro-2,2′-bipyrimidine-4-carboxamide]", "Ki": 42}
{"smiles": "C[C@H](NC(=O)c1cc(=O)[nH]c(-c2ccccc2)n1)c1ccc(Cl)cc1", "note": "[Example 394, N-[(1S)-1-(4-chlorophenyl)ethyl]-6-oxo-2-phenyl-1,6-dihydropyrimidine-4-carboxamide]", "Ki": 2220}
{"smiles": "O=C(NC1(c2ccccc2OC(F)(F)F)CC1)c1cc(=O)[nH]c(-c2ccccc2)n1", "note": "[Example 380, 6-oxo-2-phenyl-N-{1-[2-(trifluoromethoxy)phenyl]cyclopropyl}-1,6-dihydropyrimidine-4-carboxamide]", "Ki": 353}
{"smiles": "Cc1nc(C(=O)N[C@@H](c2ccc(C(F)(F)F)c([N+](=O)[O-])c2)C(C)(C)C)cc(=O)[nH]1", "note": "[Example 531, N-{(1R)-2,2-dimethyl-1-[3-nitro-4-(trifluoromethyl)phenyl]propyl}-2-methyl-6-oxo-1,6-dihydropyrimidine-4-carboxamide]", "Ki": 32}
{"smiles": "CC1(C(NC(=O)c2cc(=O)[nH]c(-c3ncccn3)n2)c2ccc(SC(F)(F)F)c(F)c2)CC1", "note": "(single isomer, unassigned) [Example 708, (S)- or (R)-N-((3-fluoro-4-((trifluoromethyl)thio)phenyl)(1-methylcyclopropyl)methyl)-6-oxo-1,6-dihydro-[2,2′-bipyrimidine-4-carboxamide]", "Ki": "~2120"}
{"smiles": "CC(C)(NC(=O)c1cc(=O)[nH]c(-c2ncccn2)n1)c1ccc(S(F)(F)(F)(F)F)cc1", "note": "[Example 678, N-{1-methyl-1-[4-(pentafluoro-λ^6-sulfanyl)phenyl]ethyl}-6-oxo-1,6-dihydro-2,2′-bipyrimidine-4-carboxamide]", "Ki": 501}
